# According to patent publication US20230183224A1, “BEZOXAZINE DERIVATIVES USEFUL AS MONOACYLGLYCEROL LIPASE INHIBITORS” (Hoffmann-La Roche Inc., priority 2017, published 2023):
# Biological target: T1, MAGL (recombinant wild-type) (Homo sapiens, UniProt Q99685)
# T1 sequence (Q99685 1-303): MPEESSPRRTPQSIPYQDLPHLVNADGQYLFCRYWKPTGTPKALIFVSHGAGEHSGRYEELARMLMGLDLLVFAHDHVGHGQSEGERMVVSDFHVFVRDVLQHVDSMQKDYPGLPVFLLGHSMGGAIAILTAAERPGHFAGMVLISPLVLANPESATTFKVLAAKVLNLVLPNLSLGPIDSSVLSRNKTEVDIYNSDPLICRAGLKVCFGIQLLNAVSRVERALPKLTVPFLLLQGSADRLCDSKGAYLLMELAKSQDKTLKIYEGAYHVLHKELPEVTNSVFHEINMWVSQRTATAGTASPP
# Test: MAGL inhibitory activity, hydrolysis of 4-nitrophenylacetate to 4-nitrophenol (absorbance at 405 nm)
# Type: biochemical
# Details: 1 nM MAGL, 300 μM 4-nitrophenylacetate, 15 min preincubation at RT, slope of absorbance at 405 nm between 5 and 80 min
# Procedure: Compounds were profiled for MAGL inhibitory activity by measuring the enzymatic activity of MAGL by following the hydrolysis of 4-nitorphenylacetate resulting in 4-nitrophenol, which absorbs at 405-412 nm (G. G. Muccioli, G. Labar, D. M. Lambert, Chem. Bio. Chem. 2008, 9, 2704-2710).
# The assay was carried out in 384 well assay plates (black with clear bottom, non-binding surface treated, Corning Ref. 3655) in a total volume of 40 μL. Compound dilutions were made in 100% DMSO (VWR Chemicals 23500.297) in a polypropylene plate in 3-fold dilution steps to give a final concentration range in the assay from 25 μM to 1.7 nM. 1 μL compound dilutions (100% DMSO) were added to 19 μL MAGL (recombinant wild-type) in assay buffer (50 mM TRIS (GIBCO, 15567-027), 1 mM EDTA (Fluka, 03690-100 ml)). The plate was shaked for 1 min at 2000 rpm (Variomag Teleshake) and then incubated for 15 min at RT. To start the reaction, 20 μL 4-Nitrophenlyacetate (Sigma N-8130) in assay buffer with 6% EtOH was added. The final concentrations in the assay were 1 nM MAGL and 300 μM 4-Nitrophenylacetate. After shaking (1 m, 2000 rpm) and 5 min incubation at RT, the absorbance at 405 nm was measured for a first time (Molecular Devices, SpectraMax Paradigm). A second measurement was then done after incubation for 80 min at RT. From the two measurements, the slope was calculated by subtracting the first from the second measurement.
row,Compound,IC50 [µM]
1,"O=C1COc2ccc(C(=O)N3CCC(Cc4ccccc4)CC3)cc2N1 [Example 1, 6-(4-benzylpiperidine-1-carbonyl)-4H-1,4-benzoxazin-3-one]",0.101
2,"O=C1COc2ccc(C(=O)N3CCN(Cc4ccccc4)CC3)cc2N1 [Example 2, 6-(4-benzylpiperazine-1-carbonyl)-4H-1,4-benzoxazin-3-one]",3.72
3,"O=C1COc2ccc(C(=O)N3CCC(Cc4ccc(F)cc4)CC3)cc2N1 [Example 3, 6-[4-[(4-fluorophenyl)methyl]piperidine-1-carbonyl]-4H-1,4-benzoxazin-3-one]",0.088
4,"O=C1COc2ccc(C(=O)N3CCC(Cc4ccc(C(F)(F)F)cc4)CC3)cc2N1 [Example 4, 6-[4-[[4-(trifluoromethyl)phenyl]methyl]piperidine-1-carbonyl]-4H-1,4-benzoxazin-3-one]",0.0347
5,"COc1ccc(CC2CCN(C(=O)c3ccc4c(c3)NC(=O)CO4)CC2)cc1 [Example 5, 6-[4-[(4-methoxyphenyl)methyl]piperidine-1-carbonyl]-4H-1,4-benzoxazin-3-one]",0.17
6,"COc1cccc(CC2CCN(C(=O)c3ccc4c(c3)NC(=O)CO4)CC2)c1 [Example 6, 6-[4-[(3-methoxyphenyl)methyl]piperidine-1-carbonyl]-4H-1,4-benzoxazin-3-one]",0.052
7,"O=C1COc2ccc(C(=O)N3CCC(O)(Cc4ccccc4)CC3)cc2N1 [Example 7, 6-(4-benzyl-4-hydroxypiperidine-1-carbonyl)-4H-1,4-benzoxazin-3-one]",4.35
8,"O=C1COc2ccc(C(=O)N3CCC(Cc4cccc(F)c4)CC3)cc2N1 [Example 8, 6-[4-[(3-fluorophenyl)methyl]piperidine-1-carbonyl]-4H-1,4-benzoxazin-3-one]",0.047
9,"O=C1COc2ccc(C(=O)N3CCC(Cc4cc(F)cc(F)c4)CC3)cc2N1 [Example 9, 6-[4-[(3,5-difluorophenyl)methyl]piperidine-1-carbonyl]-4H-1,4-benzoxazin-3-one]",0.058
10,"O=C1COc2ccc(C(=O)N3CCC(S(=O)(=O)c4ccccc4)CC3)cc2N1 [Example 10, 6-[4-(benzenesulfonyl)piperidine-1-carbonyl]-4H-1,4-benzoxazin-3-one]",4.22
11,"O=C1COc2ccc(C(=O)N3CCC(N4C[C@H](c5ccccc5)OC4=O)CC3)cc2N1 [Example 11, 6-[4-[(5S)-2-oxo-5-phenyl-1,3-oxazolidin-3-yl]piperidine-1-carbonyl]-4H-1,4-benzoxazin-3-one]",1.26
12,"O=C1COc2ccc(C(=O)N3CCC(Cc4ccc(Cl)cc4)CC3)cc2N1 [Example 12, 6-[4-[(4-chlorophenyl)methyl]piperidine-1-carbonyl]-4H-1,4-benzoxazin-3-one]",0.048
13,"O=C1COc2ccc(C(=O)N3CCC(C(=O)c4ccccc4)CC3)cc2N1 [Example 13, 6-(4-benzoylpiperidine-1-carbonyl)-4H-1,4-benzoxazin-3-one]",0.32
14,"O=C1COc2ccc(C(=O)N3CCC(Oc4ccccc4)CC3)cc2N1 [Example 14, 6-(4-phenoxypiperidine-1-carbonyl)-4H-1,4-benzoxazin-3-one]",0.99
15,"O=C1COc2ccc(C(=O)N3CCC(Oc4ccc(C(F)(F)F)cc4)CC3)cc2N1 [Example 15, 6-[4-[4-(trifluoromethyl)phenoxy]piperidine-1-carbonyl]-4H-1,4-benzoxazin-3-one]",0.076
16,"O=C1COc2ccc(C(=O)N3CCC(Cc4cccc(F)c4F)CC3)cc2N1 [Example 16, 6-[4-[(2,3-difluorophenyl)methyl]piperidine-1-carbonyl]-4H-1,4-benzoxazin-3-one]",0.066
17,"O=C1COc2ccc(C(=O)N3CCC(Cc4cccc(C(F)(F)F)c4)CC3)cc2N1 [Example 17, 6-[4-[[3-(trifluoromethyl)phenyl]methyl]piperidine-1-carbonyl]-4H-1,4-benzoxazin-3-one]",0.0395
18,"O=C1COc2ccc(C(=O)N3CCC(Oc4ccccc4)C3)cc2N1 (stereo not drawn) [Example 18, 6-(3-phenoxypyrrolidine-1-carbonyl)-4H-1,4-benzoxazin-3-one]",1.04

row,Compound,IC50 [µM]
1,"O=C1COc2ccc(C(=O)N3CCC(N4C[C@@H](c5ccccc5)OC4=O)CC3)cc2N1 [Example 19, 6-[4-[(5R)-2-oxo-5-phenyl-1,3-oxazolidin-3-yl]piperidine-1-carbonyl]-4H-1,4-benzoxazin-3-one]",2.49
2,"N#Cc1ccc(CC2CCN(C(=O)c3ccc4c(c3)NC(=O)CO4)CC2)cc1 [Example 20, 4-[[1-(3-oxo-4H-1,4-benzoxazine-6-carbonyl)piperidin-4-yl]methyl]benzonitrile]",0.37
3,"O=C1COc2ccc(C(=O)N3CCC(Cc4ccccc4-c4ccccc4)CC3)cc2N1 [Example 21, 6-[4-[(2-phenylphenyl)methyl]piperidine-1-carbonyl]-4H-1,4-benzoxazin-3-one]",0.13
4,"O=C1COc2ccc(C(=O)N3CCC(Cc4ccccn4)CC3)cc2N1 [Example 22, 6-[4-(pyridin-2-ylmethyl)piperidine-1-carbonyl]-4H-1,4-benzoxazin-3-one]",1.7
5,"O=C1COc2ccc(C(=O)N3CCC(F)(Cc4ccc(Cl)cc4)CC3)cc2N1 [Example 23, 6-[4-[(4-chlorophenyl)methyl]-4-fluoropiperidine-1-carbonyl]-4H-1,4-benzoxazin-3-one]",0.3
6,"O=C1COc2c(F)cc(C(=O)N3CCC(Cc4ccccc4)CC3)cc2N1 [Example 24, 6-(4-benzylpiperidine-1-carbonyl)-8-fluoro-4H-1,4-benzoxazin-3-one]",0.14
7,"CN(C(=O)c1ccccc1)C1CCN(C(=O)c2ccc3c(c2)NC(=O)CO3)CC1 [Example 25, N-methyl-N-[1-(3-oxo-4H-1,4-benzoxazine-6-carbonyl)piperidin-4-yl]benzamide]",0.83
8,"O=C1COc2ccc(C(=O)N3CCC(Cc4ccccc4)CC3)nc2N1 [Example 26, 6-(4-benzylpiperidine-1-carbonyl)-4H-pyrido[3,2-b][1,4]oxazin-3-one]",2.06
9,"O=C1COc2ccc(C(=O)N3CCC(C(=O)N4CCCCC4)CC3)cc2N1 [Example 27, 6-[4-(piperidine-1-carbonyl)piperidine-1-carbonyl]-4H-1,4-benzoxazin-3-one]",4.24
10,"O=C1COc2ccc(C(=O)N3CCC(Cc4ccccc4)C3)cc2N1 (stereo not drawn) [Example 28, 6-(3-benzylpyrrolidine-1-carbonyl)-4H-1,4-benzoxazin-3-one]",0.84
11,"O=C1COc2ccc(C(=O)N3CC(Cc4ccc(C(F)(F)F)cc4)C3)cc2N1 [Example 29, 6-[3-[[4-(trifluoromethyl)phenyl]methyl]azetidine-1-carbonyl]-4H-1,4-benzoxazin-3-one]",0.15
12,"O=C1COc2ccc(C(=O)N3CCC(Cc4cccc(C(F)(F)F)c4)C3)cc2N1 (stereo not drawn) [Example 30, 6-[3-[[3-(trifluoromethyl)phenyl]methyl]pyrrolidine-1-carbonyl]-4H-1,4-benzoxazin-3-one]",0.22
13,"O=C1COc2ccc(C(=O)N3CCC(Cc4ccc(C(F)(F)F)cc4)C3)cc2N1 (stereo not drawn) [Example 31, 6-[3-[[4-(trifluoromethyl)phenyl]methyl]pyrrolidine-1-carbonyl]-4H-1,4-benzoxazin-3-one]",0.4
14,"O=C1COc2ccc(C(=O)N3CCN(C(=O)c4ccc(C(F)(F)F)cc4)CC3)cc2N1 [Example 32, 6-[4-[4-(trifluoromethyl)benzoyl]piperazine-1-carbonyl]-4H-1,4-benzoxazin-3-one]",2.18
15,"O=C1COc2ccc(C(=O)N3CCC(N(C(=O)Cc4ccccc4)C4CC4)CC3)cc2N1 [Example 33, N-cyclopropyl-N-[1-(3-oxo-4H-1,4-benzoxazine-6-carbonyl)piperidin-4-yl]-2-phenylacetamide]",0.31
16,"CC1CN(C(=O)c2ccc3c(c2)NC(=O)CO3)CCN1Cc1ccc(C(F)(F)F)cc1 (stereo not drawn) [Example 34, 6-[3-methyl-4-[[4-(trifluoromethyl)phenyl]methyl]piperazine-1-carbonyl]-4H-1,4-benzoxazin-3-one]",0.449
17,"O=C1COc2ccc(C(=O)N3CCN(CCc4cccc(Cl)c4)C(c4cc[nH]n4)C3)cc2N1 (stereo not drawn) [Example 35, 6-[4-[2-(3-chlorophenyl)ethyl]-3-(1H-pyrazol-3-yl)piperazine-1-carbonyl]-4H-1,4-benzoxazin-3-one]",1.83
18,"O=C1COc2ccc(C(=O)N3CCN(Cc4ccc(C(F)(F)F)cc4)C(C(F)(F)F)C3)cc2N1 (stereo not drawn) [Example 36, 6-[3-(trifluoromethyl)-4-[[4-(trifluoromethyl)phenyl]methyl]piperazine-1-carbonyl]-4H-1,4-benzoxazin-3-one]",0.112
